Entries after “also recorded” stand apart in the source; their conditions may differ.
Key:
[1] = target: T1, cIAP1 (Homo sapiens, UniProt Q13490); assay: In vitro ubiquitination assay, cIAP1 ubiquitin ligase kit; assay type: biochemical; settings: K63 chain formation
T1 construct: purchased Boston Biochem
Method: (§1) For analysis of cIAP1, MDM2, TRIM63, RNF4, ITCH and E6AP mediated poly-ubiquitination, the respective ubiquitin ligase kit from Boston Biochem (K-102, K-260, K-200B, K-220, K-240 and K-270) was used. Here, reaction buffer, E1, E2 and E3 enzyme (and p53 substrate in case of MDM2) were mixed and pre-incubated with compound or DMSO for 5 minutes at room temperature before adding Mg^2+-ATP and mono-ubiquitin for reaction start. Ubiquitination was visualized by Western Blot analyses.

[2] = test system: IKK kinase activity in MEF cells; assay: IKK kinase assay in MEF cells; assay type: cell-based, mouse
Method: For MEF cells, 5.5×10^5 cells were seeded, then treated with compound for 6 hours and eventually stimulated with IL-1β or TNFα for 8 minutes. 1×10^6 Jurkat T-cells were treated with compound for 6 hours and finally stimulated with PMA (400 ng/ml) and lonomycin (600 ng/ml) for 8 minutes. After cell lysis in Co-IP lysis buffer (150 mM NaCl; 25 mM Hepes (pH 7.5); 0.2% NP-40; 1 mM Glycerol; 10 mM NaF; 8 mM β-Glycerophosphat; 1 mM DTT; 300 μM Sodium-vanadate; complete protease inhibitor), input samples were taken and the supernatant was then incubated with 6 μL IKKγ antibody FL-419 (Santa Cruz Biotechnology). Upon incubation with Protein-G-Sepharose beads (GE Healthcare), beads were washed in Co-IP wash buffer (150 mM NaCl; 25 mM Hepes (pH 7.5); 0.2% NP-40; 1 mM Glycerol) and transferred into kinase reaction buffer ([…] HEPES pH7.9; 10 mM MgCl2; 20 μM ATP; 20 mM β-Glycerophosphat; 200 μM Sodium-Vanadate; 1 mM DTT) supplemented with […] GST-IκBα (1-53) and 0.5 μL ^32P-γ-ATP. After 30 minutes incubation at 37° C., reaction was stopped and analyzed by autoradiography as well as Western Blot after separation on SDS-PAGE.

[3] = test system: Caco-2; assay: ADME: Caco-2 assay; assay type: in vitro ADME
Method: All ADME (plasma stability, plasma protein binding, microsomal stability, Log D, Caco-2 assay, CYP450 inhibition and hERG predictor assay) as well as pharmacokinetic studies (Tmax, Cmax, AUC0-240min, Mean Residence Time, Elimination half life, Elimination rate constant, Volume of Distribution and Clearance) of C25-140 (compound 3) were conducted by Bienta Enamine Biology Services of Bienta/Enamine Ltd.

[4] = test system: 80 cancer cell lines; assay: Omniscreen cancer cell line panel, CellTiter-Glo; assay type: cell-based; settings: 9 dose levels from 80 μM, 72 hours
Method: The effect of C25-140 on cell viability of 80 cancer cell lines using the CellTiter-Glo luminescent cell viability assay was conducted at CrownBioscience Inc. at the testing facility in Beijing. Here, 80 selected cell lines were cultured in media supplemented with 10-15% FBS, in the temperature of 37° C., 5% CO2 and 95% humidity. Culture medium was purchased from GIBCO or Sigma, USA. The cells were treated with C25-140 in 9 dose levels starting at 80 μM with 3.16-fold serial dilutions. Cisplatin served as a reference control and started with a top working concentration of 100 μM. Test samples were incubated for 72 hours and cell viability was measured by the CellTiter-Glo assay.

[5] = target: T2, ITCH (Homo sapiens, UniProt Q96J02); assay: In vitro ubiquitination assay, ITCH ubiquitin ligase kit; assay type: biochemical
T2 construct: purchased Boston Biochem
Method: as §1

T1 sequence (Q13490 whole entry): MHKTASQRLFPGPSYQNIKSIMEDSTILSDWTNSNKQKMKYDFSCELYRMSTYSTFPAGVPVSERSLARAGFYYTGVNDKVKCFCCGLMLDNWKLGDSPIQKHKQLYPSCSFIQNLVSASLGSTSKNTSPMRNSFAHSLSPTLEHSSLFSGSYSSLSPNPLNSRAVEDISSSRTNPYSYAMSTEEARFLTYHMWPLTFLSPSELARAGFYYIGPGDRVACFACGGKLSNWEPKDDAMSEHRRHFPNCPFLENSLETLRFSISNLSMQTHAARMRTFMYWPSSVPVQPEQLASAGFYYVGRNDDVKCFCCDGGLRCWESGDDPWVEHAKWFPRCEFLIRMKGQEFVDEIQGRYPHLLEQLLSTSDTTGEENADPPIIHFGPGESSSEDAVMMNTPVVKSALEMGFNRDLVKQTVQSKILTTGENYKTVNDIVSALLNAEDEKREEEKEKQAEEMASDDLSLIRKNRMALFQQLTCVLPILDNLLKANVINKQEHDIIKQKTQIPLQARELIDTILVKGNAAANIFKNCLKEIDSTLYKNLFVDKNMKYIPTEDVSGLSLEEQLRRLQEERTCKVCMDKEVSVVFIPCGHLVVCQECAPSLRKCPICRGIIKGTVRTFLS
T2 sequence (Q96J02 whole entry): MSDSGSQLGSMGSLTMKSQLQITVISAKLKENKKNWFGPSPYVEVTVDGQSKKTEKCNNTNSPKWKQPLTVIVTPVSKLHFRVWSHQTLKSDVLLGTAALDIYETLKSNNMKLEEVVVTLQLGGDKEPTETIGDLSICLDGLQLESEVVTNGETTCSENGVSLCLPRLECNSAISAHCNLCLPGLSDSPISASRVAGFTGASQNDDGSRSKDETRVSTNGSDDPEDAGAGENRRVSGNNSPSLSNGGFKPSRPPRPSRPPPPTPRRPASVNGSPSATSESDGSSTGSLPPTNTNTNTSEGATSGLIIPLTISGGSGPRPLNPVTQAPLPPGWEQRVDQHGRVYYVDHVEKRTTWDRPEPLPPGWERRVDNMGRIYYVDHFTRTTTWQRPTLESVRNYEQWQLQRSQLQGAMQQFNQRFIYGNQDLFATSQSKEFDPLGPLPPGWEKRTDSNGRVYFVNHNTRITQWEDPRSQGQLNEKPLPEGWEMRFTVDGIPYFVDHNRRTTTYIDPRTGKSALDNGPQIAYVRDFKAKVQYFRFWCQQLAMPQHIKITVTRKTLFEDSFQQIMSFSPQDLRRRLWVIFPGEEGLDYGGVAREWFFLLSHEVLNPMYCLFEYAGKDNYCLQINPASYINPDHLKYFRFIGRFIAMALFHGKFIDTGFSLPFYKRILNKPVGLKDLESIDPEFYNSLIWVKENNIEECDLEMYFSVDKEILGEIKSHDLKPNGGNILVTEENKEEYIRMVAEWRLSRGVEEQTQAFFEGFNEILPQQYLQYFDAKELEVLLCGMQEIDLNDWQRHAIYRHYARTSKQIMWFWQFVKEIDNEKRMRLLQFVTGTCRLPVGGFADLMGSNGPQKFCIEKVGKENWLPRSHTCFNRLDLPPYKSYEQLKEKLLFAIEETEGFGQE

For `Cc1nn(-c2ccc3nnc(C)n3n2)c(C)c1CCC(=O)N1CCC(Cc2ccccc2)CC1` [Example C25-140, 1-(4-Benzylpiperidin-1-yl)-3-(3,5-dimethyl-1-(3-methyl-[1,2,4]-triazolo-[4,3-b]-pyridazin-6-yl)-1H-pyrazol-4-yl)-propan-1-one], the “auto-ubiquitination of cIAP1” value [1] was “indeed affected; also recorded: dose-dependently diminished”, the “IKK kinase activity, phosphorylation of IκBα” value ([2]; IL-1β stimulation) was “decreased IKK kinase activity; also recorded: decreased phosphorylation of IκBα” and the “IKK kinase activity, phosphorylation of IκBα” value ([2]; TNFα stimulation) was “also affects”. For the same molecule, the Caco-2 permeability [3] was “good penetration of the Caco-2 layer”, the “viability of control cell lines HS-5 and MCF 10A” value [4] was “not affected at all” and the “viability of cancer cell lines” value ([4]; 78 cancer cell lines) was “major effect is on cancer cells of blood origin; also recorded: Various cancer cell lines died; also recorded: Major effects were visible in cancer cells of blood origin”. The ITCH auto-ubiquitination [5] was “not influenced; also recorded: not affected”.

— US12240854B2, “TRAF 6 inhibitors” (Helmholtz Zentrum München - Deutsches Forschungszentrum für …, priority 2018, dated 2025)
